# Where two headings read alike, the source gives them in different places.
# What was measured:
# LNCaP = assay: Inhibition of cells growth by colorimetric assay (SRB); conditions: Homo sapiens, LNCaP, 48 h
# Description: (§1) This form of the assay employs 96 well cell culture microplates of 9 mm diameter (Faircloth, 1988; Mosmann, 1983). Most of the cell lines are obtained from American Type Culture Collection (ATCC) derived from different human cancer types.
# (§2) Cells are maintained in RPMI 1640 10% FBS, supplemented with 0.1 g/l penicillin and 0.1 g/l streptomycin sulfate and then incubated at 37° C., 5% CO2 and 98% humidity. For the experiments, cells were harvested from subconfluent cultures using trypsin and resuspended in fresh medium before plating.
# (§3) Cells are seeded in 96 well microtiter plates, at 5×10^3 cells per well in aliquots of 195 μl medium, and they are allowed to attach to the plate surface by growing in drug free medium for 18 hours. Afterward, samples are added in aliquots of 5 μl in a ranging from 10 to 10^−8 μg/ml, dissolved in DMSO/EtOH/PBS (0.5:0.5:99). After 48 hours exposure, the antitumor effect are measured by the SRB methodology: cells are fixed by adding 50 μl of cold 50% (wt/vol) trichloroacetic acid (TCA) and incubating for 60 minutes at 4° C. Plates are washed with deionized water and dried. One hundred μl of SRB solution (0.4% wt/vol in 1% acetic acid) is added to each microtiter well and incubated for 10 minutes at room temperature. Unbound SRB is removed by washing with 1% acetic acid. Plates are air dried and bound stain is solubilzed with Tris buffer. Optical densities are read on a automated spectrophotometric plate reader at a single wavelength of 490 nm.
# (§4) The values for mean +/− SD of data from triplicate wells are calculated. Some parameters for cellular responses can be calculated: GI=growth inhibition, TGI=total growth inhibition (cytostatic effect) and LC=cell killing (cytotoxic effect).
# K-562 = assay: as above; conditions: Homo sapiens, K562, 48 h
# Description: as §1, §2, §3, §4
# HT-29 = assay: cells; conditions: Homo sapiens, HT-29, 48 h
# Description: as §1, §2, §3, §4
# A-549 = assay: cells; conditions: Homo sapiens, A549, 48 h
# Description: as §1, §2, §3, §4
# IGROV-1 = assay: Inhibition of cells growth by colorimetric assay (SRB); conditions: Homo sapiens, IGROV-1, 48 h
# Description: as §1, §2, §3, §4
# HeLa = assay: as above; conditions: Homo sapiens, HeLa, 48 h
# Description: as §1, §2, §3, §4
# DU-145 = assay: as above; conditions: Homo sapiens, DU-145, 48 h
# Description: as §1, §2, §3, §4
# PANC-1 = assay: as above; conditions: Homo sapiens, PANC-1, 48 h
# Description: as §1, §2, §3, §4
# HeLa-APL = assay: as above; conditions: Homo sapiens, 48 h
# Description: as §1, §2, §3, §4
# IGROV-ET = assay: as above; conditions: Homo sapiens, 48 h
# Description: as §1, §2, §3, §4
# SK-MEL-28 = assay: as above; conditions: Homo sapiens, SK-MEL-28, 48 h
# Description: as §1, §2, §3, §4
# LoVo-Dox = assay: as above; conditions: Homo sapiens, 48 h
# Description: as §1, §2, §3, §4
# LoVo = assay: cells; conditions: Homo sapiens, LoVo, 48 h
# Description: as §1, §2, §3, §4
smiles,measurement,setting,value
C=CCN1[C@@H]2c3c(cc(C)c(OC)c3OCOCCOC)C[C@H]1[C@H](C#N)N1C2[C@@H]2SC[C@@H](NC(=O)OC(C)(C)C)C(=O)OC[C@H]1c1c3c(c(C)c(OC(C)=O)c12)OCO3 (some centres unmarked) [compound 11],GI50,LNCaP; read-out: GI50 LNCAP,5.84 µM
same,GI50,K-562; read-out: GI50 K562,4.76 µM
COc1cc2c(cc1O)CCN[C@]21C[S+]([O-])[C@@H]2c3c(OC(C)=O)c(C)c4c(c3[C@H](COC1=O)N1C2C2c3c(cc(C)c(OC)c3O)C[C@@H]([C@@H]1C#N)N2C)OCO4 (some centres unmarked) [compound 17],GI50,HT-29; read-out: GI50 HT29,0.0391 µM
same,CC50,HT-29; read-out: LC50 HT29,12.7 µM
same,IC (TGI),HT-29; read-out: TGI HT29,0.086 µM
same,GI50,A-549; read-out: GI50 A549,0.0229 µM
same,CC50,A-549; read-out: LC50 A549,0.117 µM
same,IC (TGI),A-549; read-out: TGI A549,0.0521 µM
COc1c(C)cc2c(c1O)[C@@H]1C3[C@@H]4SCC(N)C(=O)OC[C@@H](c5c6c(c(C)c(OC(C)=O)c54)OCO6)N3[C@@H](C#N)C(C2)N1C (some centres unmarked) [compound 18],GI50,HT-29; read-out: GI50 HT29,0.0804 µM
same,CC50,HT-29; read-out: LC50 HT29,80.4 µM
same,IC (TGI),HT-29; read-out: TGI HT29,0.643 µM
same,GI50,A-549; read-out: GI50 A549,0.161 µM
same,CC50,A-549; read-out: LC50 A549,8.04 µM
same,IC (TGI),A-549; read-out: TGI A549,0.643 µM
COc1c(C)cc2c(c1O)[C@H]1N[C@@H](C2)[C@H](C#N)N2C1[C@@H]1SCC(=O)C(=O)OC[C@H]2c2c3c(c(C)c(OC(C)=O)c21)OCO3 (some centres unmarked) [compound 42],GI50,IGROV-1; read-out: IGROV GI50,0.0286 µM
same,CC50,IGROV-1; read-out: IGROV LC50,0.153 µM
same,IC (TGI),IGROV-1; read-out: IGROV TGI,0.0663 µM
same,GI50,LNCaP; read-out: LNCAP GI50,0.00596 µM
same,CC50,LNCaP; read-out: LNCAP LC50,0.0637 µM
same,IC (TGI),LNCaP; read-out: LNCAP TGI,0.0224 µM
same,GI50,HeLa; read-out: HELA GI50,0.0281 µM
same,CC50,HeLa; read-out: HELA LC50,0.139 µM
same,IC (TGI),HeLa; read-out: HELA TGI,0.0625 µM
same,GI50,DU-145; read-out: DU145 GI50,0.0374 µM
same,CC50,DU-145; read-out: DU145 LC50,0.247 µM
same,IC (TGI),DU-145; read-out: DU145 TGI,0.0825 µM
same,GI50,PANC-1; read-out: PANC-1 GI50,0.039 µM
same,CC50,PANC-1; read-out: PANC-1 LC50,5.27 µM
same,IC (TGI),PANC-1; read-out: PANC-1 TGI,0.0115 µM
same,GI50,HeLa-APL; read-out: HELA-APL GI50,0.0346 µM
same,CC50,HeLa-APL; read-out: HELA-APL LC50,0.13 µM
same,IC (TGI),HeLa-APL; read-out: HELA-APL TGI,0.067 µM
same,GI50,IGROV-ET; read-out: IGROV-ET GI50,0.28 µM
same,CC50,IGROV-ET; read-out: IGROV-ET LC50,16.5 µM
same,IC (TGI),IGROV-ET; read-out: IGROV-ET TGI,1.02 µM
same,GI50,SK-MEL-28; read-out: MEL-28 GI50,0.0301 µM
same,CC50,SK-MEL-28; read-out: MEL-28 LC50,0.107 µM
same,IC (TGI),SK-MEL-28; read-out: MEL-28 TGI,0.0568 µM
same,GI50,K-562; read-out: K562 GI50,0.0178 µM
same,CC50,K-562; read-out: K562 LC50,0.694 µM
same,IC (TGI),K-562; read-out: K562 TGI,0.0596 µM
same,GI50,LoVo-Dox; read-out: LOVO-DOX GI50,0.515 µM
same,CC50,LoVo-Dox; read-out: LOVO-DOX LC50,16.5 µM
same,IC (TGI),LoVo-Dox; read-out: LOVO-DOX TGI,1.44 µM
same,GI50,HT-29; read-out: HT29 GI50,0.0397 µM
same,CC50,HT-29; read-out: HT29 LC50,16.5 µM
same,IC (TGI),HT-29; read-out: HT29 TGI,0.131 µM
same,GI50,A-549; read-out: A549 GI50,0.0574 µM
same,CC50,A-549; read-out: A549 LC50,2.37 µM
same,IC (TGI),A-549; read-out: A549 TGI,0.147 µM
same,GI50,LoVo; read-out: LOVO GI50,0.0377 µM
same,CC50,LoVo; read-out: LOVO LC50,2.93 µM
same,IC (TGI),LoVo; read-out: LOVO TGI,0.0726 µM
C=CCOc1c(C)c2c(c3c1CC1[C@H]4c5c(cc(C)c(OC)c5O)C[C@@H]([C@H](C#N)N1[C@H]3CNC(=O)[C@H](CSCC1c3ccccc3-c3ccccc31)NC(=O)OC(C)(C)C)N4C)OCO2 (some centres unmarked) [compound 69],GI50,HT-29; read-out: HT29 GI50,1.11 µM
same,CC50,HT-29; read-out: HT29 LC50,11.1 µM
same,IC (TGI),HT-29; read-out: HT29 TGI,1.11 µM
same,GI50,A-549; read-out: A549 GI50,5.57 µM
same,CC50,A-549; read-out: A549 LC50,55.7 µM
same,IC (TGI),A-549; read-out: A549 TGI,22.3 µM
C=CCOc1c(C)c2c(c3c1CC1[C@H]4c5c(cc(C)c(OC)c5OCOCCOC)C[C@@H]([C@H](C#N)N1[C@H]3CNC(=O)[C@H](CSCC1c3ccccc3-c3ccccc31)NC(=O)OC(C)(C)C)N4C)OCO2 (some centres unmarked) [compound 70],GI50,HT-29; read-out: HT29 GI50,10.1 µM
same,CC50,HT-29; read-out: HT29 LC50,50.6 µM
same,IC (TGI),HT-29; read-out: HT29 TGI,10.1 µM
same,GI50,A-549; read-out: A549 GI50,5.06 µM
same,CC50,A-549; read-out: A549 LC50,50.6 µM
same,IC (TGI),A-549; read-out: A549 TGI,50.6 µM
COCCOCOc1c(OC)c(C)cc2c1[C@@H]1C3CC4(O)C(=O)C(C)=C5OCOC5=C4[C@H](CNC(=O)[C@H](CSCC4c5ccccc5-c5ccccc54)NC(=O)OC(C)(C)C)N3[C@@H](C#N)[C@H](C2)N1C (some centres unmarked) [compound 72],GI50,HT-29; read-out: HT29 GI50,1.04 µM
same,CC50,HT-29; read-out: HT29 LC50,5.19 µM
same,IC (TGI),HT-29; read-out: HT29 TGI,1.04 µM
same,GI50,A-549; read-out: A549 GI50,0.0519 µM
same,CC50,A-549; read-out: A549 LC50,4.15 µM
same,IC (TGI),A-549; read-out: A549 TGI,0.104 µM
